The source of these data is patent US7462605B2, “Phosphoramidate compounds and methods of use” (Celmed Oncology (USA), Inc., priority 2002, dated 2008).

The target of one test is T1, rHuTS (Homo sapiens, UniProt P04818).
T1 construct: His tag (from pET-28a(+)) (N); made in house; host or cells: E. coli BL21 (DE3)/pET-28a(+)
Description: Inhibition of rHuTS reactions by Tomudex and 5-FdUMP (initial rates). In kind it is biochemical. Conditions: for initial rate of rHuTS reaction with inhibitor / rate as % of No Inhibitor: inhibitor 500 nM. On the procedure:
(§1) Enzyme Assays and Kinetic Measurements. Thymidylate synthase assays were done in 96 well Costar UV transparent plates in a reaction volume of 200 μL, consisting of 40 mM Tris pH 7.5, 25 mM MgCl2, 1 mM EDTA, 25 mM-mercaptoethanol, 125M dUMP, and 65 μM N5, N10-methylene tetrahydrofolate indicated. Tetrahydrofolate stock solutions were prepared by dissolving tetrahydrofolic acid (Sigma) directly into 0.2M Tris pH 7.5, 0.5 M-mercaptoethanol; stock solutions were stored at −80° C. N5, N10-methylene tetrahydrofolate was prepared by adding 12 μl of 3.8% formaldehyde to 1 ml of a 0.65 mM solution of tetrahydrofolate and incubating for 5 minutes at 37° C. N5, N10-methylene tetrahydrofolate was kept on ice and used within 2 hours of preparation.
Conversion of BVdUMP to fluorescent product(s) by thymidylate synthase was measured in 200 μl thymidylate synthase reactions containing 125M BVdUMP in 96 well Dynex Microfluor Black “U” bottom microtiter plates using an excitation wavelength of 340 nm and emission wavelength of 595 nm. Fluorescence was measured with a Tecan Spectrafluor Plus fluorimeter.

For test [1], the system named is Det551 normal skin fibroblasts. The test is described as follows: 96-well combination cytotoxicity assay (crystal violet) with NB1011, Det551. On Interaction: key: Syn = synergy; Ant = antagonism; Add = additivity. The conditions noted are these: for Interaction: drug combined with NB1011, Det551; for CI (average combination index): drug combined with NB1011, Det551, 96-well crystal violet, 72 hour. In kind it is cell-based, human. On the procedure: (§2) Cell lines: Normal human colon epithelial cells (CCD18co) and skin fibroblasts (Det55 1) were purchased from ATCC (Rockville,Md.). MCF7TDX, human breast carcinoma cells resistant to 2 μM Tomudex were obtained from Dr. Patrick Johnston, Queens University, Belfast. […] The MCF7TDX and the H630R10 cell lines have been previously described in Drake, J. C. et al. (1996) and Copur, S. et al. (1995) respectively.
(§3) Culture Conditions: All cells were cultured under standard conditions of 37° C., 95% humidified air, 5% CO2 in RPMI 1640 culture medium containing 10% fetal calf serum (Life Technologies) and penicillin/streptomycin/fungizone. […] The medium was renewed or the cells were passaged about every three days to maintain optimal growth conditions. Normal cells were passaged a maximum of 15 times to avoid senescence.
(§4) Cytotoxicity Studies: 384-well interaction screening assay. 500 cells per well were transferred to a 384-well tissue culture plate (Corning Inc., Corning, N.Y.) and allowed to attach for 24 hours in standard culture conditions. Compounds were then applied in a bidirectional (checker board) pattern (Chou, T. C. and Talalay, P. (1984)). Following a 5-day incubation, the redox indicator dye, alamarBlue (AccuMed International, Westlake, Ohio) was added to each well at a 10% v/v ratio, and fluorescence was monitored at 535 excitation, 595 emission. Cytotoxic effect levels and drug interactions were assessed by the combination index method (Chou, T. C. and Talalay, P. (1984) and Bible, K. C. et al. (1997)), described briefly below. 96-well combination cytotoxicity assay. Exponentially growing cells were transferred at a density of 1.0-5.5×10^3 cells per well to a 96-well tissue culture plate and allowed to attach for 24 hours. Compounds were then applied in duplicate half log serial dilutions. Each compound was tested separately, and mixed together at a single molar ratio approximately equal to the ratio of the individual IC50 values. After an additional 72 hour incubation, cells were washed once with PBS and stained with 0.5% crystal violet in methanol. Plates were washed gently in water to remove unbound stain and allowed to dry overnight. […] Sigmoid curves were fit according to the Hill inhibitory Emax model, and IC50 calculated as the average of three or more separate determinations. Where applicable, the combination index for multiple drug effects was calculated according to the median-effect principle (Chou, T. C. and Talalay, P. (1984)) using the CalcuSyn software from Biosoft (Ferguson, Mo.). Briefly, the ICso and the slope parameter (m) for each agent alone were determined from the median effect plot, an x,y plot of log(D) vs log (fa/fu) based on Chou's median effect equation: fa/fu=(D/Dm)^m [Equation 1]
(§5) Only experiments with linear correlation coefficients (r) >0.9 were accepted for analysis. A combination index (CI) was then calculated to assess synergism or antagonism according to the following equation which assumes an independent mechanism of drug action (mutual exclusivity): CI=(D)1/(Dx)1+(D)2/(Dx)2+(D)1(D)2/(Dx)1 (Dx)2 [Equation 2]
(§6) where (D)1 and (D)2 are the concentrations of drug 1 and drug 2 which combined produce x% inhibition, and (Dx)1 and (Dx)2 are the concentrations of each drug which alone produce x% inhibition. CI=1 indicates an additive interaction, CI<1 indicates synergy, and CI>1 indicates antagonism. For each experiment Cl's from several different effect levels and concentrations of a constant molar ratio were averaged.

A further test deals with MCF7TDX cells. Description: 96-well combination cytotoxicity assay (crystal violet) with NB1011, MCF7TDX. On Interaction: key: Syn = synergy; Ant = antagonism; Add = additivity. The format is cell-based, human. Conditions: drug combined with NB1011, MCF7TDX; for CI (average combination index): 96-well crystal violet, 72 hour. How it is done: Cell lines: Normal human colon epithelial cells (CCD18co) and skin fibroblasts (Det55 1) were purchased from ATCC (Rockville,Md.). MCF7TDX, human breast carcinoma cells resistant to 2 μM Tomudex were obtained from Dr. Patrick Johnston, Queens University, Belfast.
The medium was renewed or the cells were passaged about every three days to maintain optimal growth conditions. Normal cells were passaged a maximum of 15 times to avoid senescence.
Cytotoxicity Studies: 384-well interaction screening assay. 500 cells per well were transferred to a 384-well tissue culture plate (Corning Inc., Corning, N.Y.) and allowed to attach for 24 hours in standard culture conditions. […] 96-well combination cytotoxicity assay. […] Compounds were then applied in duplicate half log serial dilutions. Each compound was tested separately, and mixed together at a single molar ratio approximately equal to the ratio of the individual IC50 values. After an additional 72 hour incubation, cells were washed once with PBS and stained with 0.5% crystal violet in methanol. Plates were washed gently in water to remove unbound stain and allowed to dry overnight. […] Sigmoid curves were fit according to the Hill inhibitory Emax model, and IC50 calculated as the average of three or more separate determinations. […] Briefly, the ICso and the slope parameter (m) for each agent alone were determined from the median effect plot, an x,y plot of log(D) vs log (fa/fu) based on Chou's median effect equation: fa/fu=(D/Dm)^m [Equation 1]
as §5, §6

Test [2] deals with CCD18co normal colon epithelial cells. Description: 96-well combination cytotoxicity assay (crystal violet) with NB1011, CCD18co. The conditions noted are these: drug combined with NB1011, CCD18co; for CI (average combination index): 96-well crystal violet, 72 hour. The format is cell-based, human. How it is done:
as §2, §3, §4, §5, §6

The target of test [3] is T2, rHuTS (recombinant human thymidylate synthase) (Homo sapiens, UniProt P04818).
T2 construct: His tag (from pET-28a(+)) (N); made in house; host or cells: E. coli BL21 (DE3)/pET-28a(+)
T2 sequence (P04818 whole entry): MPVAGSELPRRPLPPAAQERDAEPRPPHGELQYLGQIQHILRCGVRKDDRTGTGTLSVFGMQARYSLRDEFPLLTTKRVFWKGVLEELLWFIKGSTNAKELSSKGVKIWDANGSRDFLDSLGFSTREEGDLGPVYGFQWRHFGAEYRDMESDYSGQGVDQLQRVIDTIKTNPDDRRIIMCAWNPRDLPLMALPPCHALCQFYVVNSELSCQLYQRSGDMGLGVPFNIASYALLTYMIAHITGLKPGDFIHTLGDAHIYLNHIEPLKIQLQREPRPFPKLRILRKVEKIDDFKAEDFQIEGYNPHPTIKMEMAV
Description: Enzyme kinetics of rHuTS with dUMP and BVdUMP. In kind it is biochemical. Conditions: rHuTS. How it is done:
Enzyme Preparation. Cloned human thymidylate synthase plasmid pBCHTS was subcloned into E. coli. BL21 (DE3)/pET-28a(+) (Novagen) using the Ndel ñSacI insertion site, in order to add an amino terminal His tag. Enzyme was expressed in E. coli. by induction with IPTG, and purified by affinity chromatography on a Ni^2+ His Bind metal chelation resin (Novagen). The column Ni^2+ His Bind metal chelation column was washed with 20 mM Tris pH 7.9, 5 mM imidazole, 0.5M NaCl; thymidylate synthase activity was eluted with 20 mM Tris pH 7.9, 60 mM imidazole, 0.5M NaCl.
as §1
Enzyme kinetic constants (Km and Vmax) were determined for the human thymidylate synthase substrates dUMP and BVdUMP using the enzyme assay conditions described above. The initial rates of the enzyme reactions was determined by measuring the increase in A340 for the reaction with dUMP, and decrease in A294 for the reaction with BVdUMP. The catalytic efficiency of the enzyme (Kcat/Km) was calculated from the kinetic constants Km and Vmax.

For a further test, the target named is T3, Lactobacillus casei TS (Lacticaseibacillus casei, UniProt P00469).
T3 sequence (P00469 1-316): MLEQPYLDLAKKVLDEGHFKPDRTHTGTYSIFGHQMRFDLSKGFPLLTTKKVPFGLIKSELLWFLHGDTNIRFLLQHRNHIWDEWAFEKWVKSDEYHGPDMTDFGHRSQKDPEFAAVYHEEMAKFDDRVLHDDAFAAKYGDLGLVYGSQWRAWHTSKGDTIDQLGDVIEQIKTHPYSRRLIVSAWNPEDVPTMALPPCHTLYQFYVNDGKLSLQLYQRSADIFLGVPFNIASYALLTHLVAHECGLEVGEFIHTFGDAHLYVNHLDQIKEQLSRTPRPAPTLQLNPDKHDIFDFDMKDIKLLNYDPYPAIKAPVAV
The conditions noted are these: cited from earlier work.

[4] abbreviates: BVdUMP reaction, read-out: Kl (of dUMP).

T1 sequence (P04818 whole entry): as the sequence (P04818 whole entry) above

With `O=c1[nH]c(=O)n([C@H]2C[C@H](O)[C@@H](COP(=O)(O)O)O2)cc1F` [5-FdUMP], the “initial rate of rHuTS reaction with inhibitor” value came to 44 ± 2 RFU/min on rHuTS (BVdUMP + THF), 93 ± 13 RFU/min on rHuTS (BVdUMP − THF) and 290 ± 70 nmol/min on rHuTS (dUMP + THF). The “rate as % of No Inhibitor” value on rHuTS (BVdUMP + THF) was “(40%)”; on rHuTS (BVdUMP − THF), “(129%)”; at rHuTS (dUMP + THF) it was “(19%)”.

On to `OCCN(CCO)c1nc(N2CCCCC2)c2nc(N(CCO)CCO)nc(N3CCCCC3)c2n1` [Dipyridamole, dipyridamole], for which the Interaction entry in test [1] is given as “Add”; with MCF7TDX cells, “Syn”; in test [2] it was “Ant”. Moreover, the “CI (average combination index)” value in test [1] was 1.17; in the test with MCF7TDX cells, 0.51; in test [2], 1.30.

Consider `COc1cccc2c1C(=O)c1c(O)c3c(c(O)c1C2=O)C[C@@](O)(C(=O)CO)C[C@@H]3O[C@H]1C[C@H](N)[C@H](O)[C@H](C)O1` [Doxorubicin], for which, in the test on MCF7TDX cells, the Interaction result is on record as “Ant”.

In the case of `O=C1[O][Pt]2([NH][C@@H]3CCCC[C@H]3[NH]2)[O]C1=O` [Oxaliplatin], in the test on MCF7TDX cells, the Interaction entry was “Ant”.

On to `Cc1nc2ccc(CN(C)c3ccc(C(=O)N[C@@H](CCC(=O)O)C(=O)O)s3)cc2c(=O)[nH]1` [Tomudex], for which the “initial rate of rHuTS reaction with inhibitor” value on rHuTS (BVdUMP + THF) came to 67 ± 3 RFU/min; on rHuTS (BVdUMP − THF), 34 ± 3 RFU/min; at rHuTS (dUMP + THF), 690 ± 40 nmol/min.

Consider `CC[C@]1(O)C[C@@H]2CN(CCc3c([nH]c4ccccc34)[C@@](C(=O)OC)(c3cc4c(cc3OC)N(C)[C@H]3[C@@](O)(C(=O)OC)[C@H](OC(C)=O)[C@]5(CC)C=CCN6CC[C@]43[C@@H]65)C2)C1` [Vinblastine], for which the Interaction result is on record as “Syn” in test [1], “Ant” with MCF7TDX cells and “Syn” in test [2].

For the molecule `O=c1ccn([C@H]2C[C@H](O)[C@@H](COP(=O)(O)O)O2)c(=O)[nH]1` [dUMP], the Kcat in test [3] was 0.2 s⁻¹; at Lactobacillus casei TS it was 6.4 s⁻¹. Further, the “form of inhibition of the BVdUMP reaction (Michaelis-Menton kinetics)” value in test [3] was “competitive inhibition”. The Ki in test [3] (setting [4]) is 17.5 µM; at Lactobacillus casei TS (setting [4]), 2 µM. For the same molecule, the values for the Km (in test [3] (substrate); at Lactobacillus casei TS (substrate)) were 7.7 µM and 3 µM, respectively. In addition, the “initial rate of rHuTS reaction, No Inhibitor” value on rHuTS (dUMP + THF, 30° C., increase in A340) was determined as 1500 ± 20 nmol/min.

Turning to `O=[N+]([O-])c1ccc(CSc2ncnc3c2ncn3C2OC(CO)C(O)C2O)cc1` (stereo not shown) [p-Nitrobenzyl-Thioinosine (NBMPR), p-nitrobenzylthioinosine], the figures for the Interaction result (in test [1]; in the test on MCF7TDX cells; in test [2]) were “Ant”, “Syn” and “Ant”, respectively. Moreover, the “CI (average combination index)” value in test [1] turned out to be 1.43; in the test with MCF7TDX cells, 0.57; in test [2], 3.93.
